Values quoted from earlier work, collected in US8529939B2, “Mucoadhesive drug delivery devices and methods of making and using thereof” (Gel-Del Technologies, Inc., priority 2003, dated 2013).

[1] = contact time 30 s, previous study

tensile stress [1]: 0.017 N/cm^2
tensile work [1]: 0.015 mJ/cm^2
bioadhesive properties (in words) (powders, control reference): no bioadhesive properties
Structure (SMILES): OC[C@@H](O)[C@@H](O)[C@H](O)[C@H](O)CO [Mannitol, mannitol]
